According to US20140080810A1 (Exelixis, Inc., priority 2010, published 2014):

What was measured:
mTOR/GbL/Raptor (mTORC1) = mTOR/GbL/Raptor (mTORC1) (Homo sapiens, UniProt P42345); experiment: mTOR/GbL/Raptor (mTORC1) ELISA Assay; format: biochemical; conditions: 4E-BP1 phosphorylation, 0.2 nM mTORC1, 10 μM ATP; last bin: >= 2,000 nM or not active under the conditions the assay was run; read-out: IC50 in this assay (mTORC1)
Experimental: The measurement of mTORC1 enzyme activity was performed in an ELISA assay format following the phosphorylation of 4E-BP1 protein. All experiments were performed in the 384-well format. Generally, 0.5 μL DMSO containing varying concentrations of the test Compound was mixed with 15 μL enzyme solution. Kinase reactions were initiated with the addition of 15 μL of substrates-containing solution. The assay conditions were as follows; 0.2 nM mTORC1, 10 μM ATP and 50 nM NHis-tagged 4E-BPI in 20 mM Hepes, pH 7.2, 1 mM DTT, 50 mM NaCl, 10 mM MnCl2, 0.02 mg/mL BSA, 0.01% CHAPS, 50 mM β-glycerophosphate. Following an incubation of 120 minutes at ambient temperature, 20 μL of the reaction volume was transferred to a Ni-Chelate-coated 384-well plate. The binding step of the 4E-BP1 protein proceeded for 60 minutes, followed by washing 4 times each with 50 μL of Tris-buffered saline solution (TBS). Anti-phospho-4E-BP1 rabbit-IgG (20 μL, 1:5000) in 5% BSA-TBST (0.2% Tween-20 in TBS) was added and further incubated for 60 minutes. Incubation with a secondary HRP-tagged anti-IgG was similarly performed after washing off the primary antibody (4 washes of 50 μL). Following the final wash step with TBST, 20 μL of SuperSignal ELISA Femto (Pierce Biotechnology) was added and the luminescence measured using an EnVision plate reader.

PI3Kα = PI3Kα (Homo sapiens, UniProt P42336); experiment: PI3K Biochemical Assay (ATP consumed, luciferase-luciferin chemiluminescence); conditions: 1 μM ATP, 10 μM PIP2; last bin: >= 2,000 nM or not active under the conditions the assay was run; read-out: IC50 for PI3Kα in this assay
Sequence of PI3Kα (P42336 whole entry): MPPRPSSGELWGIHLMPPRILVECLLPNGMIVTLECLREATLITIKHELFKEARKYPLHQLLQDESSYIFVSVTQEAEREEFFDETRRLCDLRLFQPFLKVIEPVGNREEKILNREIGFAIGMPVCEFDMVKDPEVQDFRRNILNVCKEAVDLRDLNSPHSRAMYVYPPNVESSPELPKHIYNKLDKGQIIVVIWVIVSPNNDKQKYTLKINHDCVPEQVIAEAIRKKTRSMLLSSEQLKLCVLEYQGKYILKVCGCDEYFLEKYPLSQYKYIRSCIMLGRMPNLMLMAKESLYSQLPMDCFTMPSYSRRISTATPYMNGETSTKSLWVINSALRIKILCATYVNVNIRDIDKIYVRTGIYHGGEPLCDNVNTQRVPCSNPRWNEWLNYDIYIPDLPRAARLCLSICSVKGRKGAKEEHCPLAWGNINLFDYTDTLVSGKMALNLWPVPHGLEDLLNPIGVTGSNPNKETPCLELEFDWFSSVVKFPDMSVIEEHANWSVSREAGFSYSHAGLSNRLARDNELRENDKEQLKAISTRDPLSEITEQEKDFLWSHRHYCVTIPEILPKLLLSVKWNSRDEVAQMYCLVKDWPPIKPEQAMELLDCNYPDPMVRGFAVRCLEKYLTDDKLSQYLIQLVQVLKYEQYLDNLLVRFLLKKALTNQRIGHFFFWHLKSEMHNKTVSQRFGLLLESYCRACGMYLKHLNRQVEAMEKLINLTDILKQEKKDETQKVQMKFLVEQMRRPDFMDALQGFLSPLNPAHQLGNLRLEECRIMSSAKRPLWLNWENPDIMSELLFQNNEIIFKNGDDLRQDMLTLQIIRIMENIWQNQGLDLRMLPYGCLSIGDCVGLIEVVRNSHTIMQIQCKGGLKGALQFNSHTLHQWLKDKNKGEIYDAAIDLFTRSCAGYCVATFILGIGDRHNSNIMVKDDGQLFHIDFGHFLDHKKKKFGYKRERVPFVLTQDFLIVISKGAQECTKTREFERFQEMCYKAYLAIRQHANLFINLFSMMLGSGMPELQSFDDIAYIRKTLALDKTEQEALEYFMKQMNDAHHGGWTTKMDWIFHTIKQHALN
Sequence of PI3Kα (P27986 whole entry partner): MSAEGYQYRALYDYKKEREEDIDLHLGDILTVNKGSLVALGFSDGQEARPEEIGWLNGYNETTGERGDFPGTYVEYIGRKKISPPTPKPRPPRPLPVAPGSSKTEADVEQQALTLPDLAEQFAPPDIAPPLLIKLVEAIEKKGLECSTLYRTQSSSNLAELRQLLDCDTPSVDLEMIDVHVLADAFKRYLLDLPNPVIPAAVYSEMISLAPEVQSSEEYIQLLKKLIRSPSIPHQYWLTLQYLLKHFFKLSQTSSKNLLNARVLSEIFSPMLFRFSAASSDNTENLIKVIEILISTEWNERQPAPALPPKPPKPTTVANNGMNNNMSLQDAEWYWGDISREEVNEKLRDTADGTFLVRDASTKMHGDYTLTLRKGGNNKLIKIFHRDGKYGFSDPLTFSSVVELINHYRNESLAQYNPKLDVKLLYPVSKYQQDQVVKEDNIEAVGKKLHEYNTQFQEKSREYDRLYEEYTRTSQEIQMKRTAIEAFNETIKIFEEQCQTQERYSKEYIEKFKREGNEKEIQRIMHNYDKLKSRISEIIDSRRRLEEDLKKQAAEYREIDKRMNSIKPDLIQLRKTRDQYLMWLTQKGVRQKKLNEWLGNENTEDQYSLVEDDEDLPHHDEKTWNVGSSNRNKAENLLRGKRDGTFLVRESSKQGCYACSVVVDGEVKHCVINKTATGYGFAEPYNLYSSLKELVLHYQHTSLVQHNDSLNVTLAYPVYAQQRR
Experimental: PI3Kα activity is measured as the percent of ATP consumed following the kinase reaction using luciferase-luciferin-coupled chemiluminescence. Reactions were conducted in 384-well white, medium binding microtiter plates (Greiner). Kinase reactions were initiated by combining test compounds, ATP, substrate (PIP2), and kinase in a 20 μL volume in a buffer solution. The standard PI3Kalpha assay buffer is composed 50 mM Tris, pH 7.5, 1 mM EGTA, 10 mM MgCl2, 1 mM DTT and 0.03% CHAPS. The standard assay concentrations for enzyme, ATP, and substrate are 1.5 nM, 1 μM, and 10 μM, respectively. The reaction mixture was incubated at ambient temperature for approximately 2 h. Following the kinase reaction, a 10 μL aliquot of luciferase-luciferin mix (Promega Kinase-Glo) was added and the chemiluminescence signal measured using a Victor2 plate reader (Perkin Elmer). Total ATP consumption was limited to 40-60% and IC50 values of control compounds correlate well with literature references. Substituting PI3Kα with PI3Kβ, PI3Kγ, or PI3Kδ, the inhibitory activity of the compounds for the other isoforms of I3K were measured.

Compound | IC50 (mTOR/GbL/Raptor (mTORC1)) [nM] | IC50 (PI3Kα) [nM]
CCNc1nc2ccc(-c3ccc4c(c3)CN(c3nc(C)nc5cc(O)ccc35)CCO4)cc2[nH]1 [Compound 285, 4-{7-[2-(ethylamino)-1H-benzimidazol-6-yl]-2,3-dihydro-1,4-benzoxazepin-4(5H)-yl}-2-methylquinazolin-7-ol] | 50 to 250 | 
Cc1nc2cc(-c3ccc4c(c3)CN(c3nc(C5CCCN5)nc5c3CC(C)(C)CC5)CCO4)cnc2[nH]1 (stereo not shown) [Compound 474, 4-(6,6-dimethyl-2-pyrrolidin-2-yl-5,6,7,8-tetrahydroquinazolin-4-yl)-7-(2-methyl-3H-imidazo[4,5-b]pyridin-6-yl)-2,3,4,5-tetrahydro-1,4-benzoxazepine] | ≤ 10 | 
Cn1cnc2cc(-c3ccc4c(c3)CN(c3ccnc5ccccc35)CCO4)ccc21 [Compound 130, 7-(1-methyl-1H-benzimidazol-5-yl)-4-quinolin-4-yl-2,3,4,5-tetrahydro-1,4-benzoxazepine] | 250 to 1000 | 1000 to 2000
COC(=O)Nc1nc2ccc(-c3ccc4c(c3)CN(c3ncnc5c3CC(C)(C)CC5)CCO4)cc2[nH]1 [Compound 235, methyl {6-[4-(6,6-dimethyl-5,6,7,8-tetrahydroquinazolin-4-yl)-2,3,4,5-tetrahydro-1,4-benzoxazepin-7-yl]-1H-benzimidazol-2-yl}carbamate] | 50 to 250 | 
Cc1nc2ccc(-c3ccc4c(c3)CN(c3nc(C(C)(C)O)nc5c3CC(C)(C)CC5)CCO4)cc2[nH]1 [Compound 362, 2-{6,6-dimethyl-4-[7-(2-methyl-1H-benzimidazol-6-yl)-2,3-dihydro-1,4-benzoxazepin-4(5H)-yl]-5,6,7,8-tetrahydroquinazolin-2-yl}propan-2-ol] | 50 to 250 | 
CC1(C)CCc2ncnc(N3CCOc4ccc(-c5cnc(NCc6ccccc6)c(NS(C)(=O)=O)c5)cc4C3)c2C1 [Compound 630, N-{5-[4-(6,6-dimethyl-5,6,7,8-tetrahydroquinazolin-4-yl)-2,3,4,5-tetrahydro-1,4-benzoxazepin-7-yl]-2-[(phethylmethyl)amino]pyridin-3-yl}methanesulfonamide] | ≥ 2000 | 
CC1(C)CCc2ncnc(N3CCOc4ccc(-c5cnc(N)c(S(=O)(=O)N6CCC(N)C6)c5)cc4C3)c2C1 (stereo not shown) [Compound 445, 3-[(3-aminopyrrolidin-1-yl)sulfonyl]-5-[4-(6,6-dimethyl-5,6,7,8-tetrahydroquinazolin-4-yl)-2,3,4,5-tetrahydro-1,4-benzoxazepin-7-yl]pyridin-2-amine] | 10 to 50 | 
Cc1nc2cc(-c3ccc4c(c3)CN(c3nc(N)nc(C)c3Cc3ccc(F)cc3)CCO4)ccc2[nH]1 [Compound 660, 5-[(4-fluorophenyl)methyl]-4-methyl-6-[7-(2-methyl-1H-benzimidazol-5-yl)-2,3-dihydro-1,4-benzoxazepin-4(5H)-yl]pyrimidin-2-amine] | ≤ 10 | 
Cc1nc2ccc(-c3ccc4c(c3)CN(c3ccncn3)CCO4)cc2[nH]1 [Compound 2, 7-(2-methyl-1H-benzimidazol-6-yl)-4-pyrimidin-4-yl-2,3,4,5-tetrahydro-1,4-benzoxazepine] | ≥ 2000 | 

Next, values leading:

IC50 (mTOR/GbL/Raptor (mTORC1)) [nM] | IC50 (PI3Kα) [nM] | Compound
≤ 10 |  | Cc1nc2ccc(-c3ccc4c(c3)CN(c3ncnc5ccc(Br)cc35)CCO4)cc2[nH]1 [Compound 12, 4-(6-bromoquinazolin-4-yl)-7-(2-methyl-1H-benzimidazol-6-yl)-2,3,4,5-tetrahydro-1,4-benzoxazepine]
≤ 10 |  | CC1(C)CCc2ncnc(N3CCOc4ccc(-c5ccc6nc[nH]c6c5)cc4C3)c2C1 [Compound 219, 7-(1H-benzimidazol-6-yl)-4-(6,6-dimethyl-5,6,7,8-tetrahydroquinazolin-4-yl)-2,3,4,5-tetrahydro-1,4-benzoxazepine]
1000 to 2000 |  | Cn1ccc2cc(-c3ccc4c(c3)CN(c3ccnc5ccccc35)CCO4)ccc21 [Compound 133, 7-(1-methyl-1H-indol-5-yl)-4-quinolin-4-yl-2,3,4,5-tetrahydro-1,4-benzoxazepine]
 | ≥ 2000 | Cc1nc2ccc(-c3ccc4c(c3)CN(c3cc(-c5ccccc5)nc(-c5ccccc5)n3)CCO4)cc2[nH]1 [Compound 7]
50 to 250 |  | CCNc1nc2ccc(-c3ccc4c(c3)CN(c3cc(C)nc5cc(F)ccc35)CCO4)cc2[nH]1 [Compound 641, N-ethyl-6-[4-(7-fluoro-2-methylquinolin-4-yl)-2,3,4,5-tetrahydro-1,4-benzoxazepin-7-yl]-1H-benzimidazol-2-amine]
≤ 10 |  | Cc1nc2ccc(-c3ccc4c(c3)CN(c3ncnc5ccc(Cl)cc35)CCO4)cc2[nH]1 [Compound 13, 4-(6-chloroquinazolin-4-yl)-7-(2-methyl-1H-benzimidazol-6-yl)-2,3,4,5-tetrahydro-1,4-benzoxazepine]
1000 to 2000 |  | Cc1nc2cc(-c3ccc4c(c3)CN(c3nc(CN(C)C)nc(C)c3C)CCO4)cnc2[nH]1 [Compound 335, 1-{4,5-dimethyl-6-[7-(2-methyl-3H-imidazo[4,5-b]pyridin-6-yl)-2,3-dihydro-1,4-benzoxazepin-4(5H)-yl]pyrimidin-2-yl}-N,N-dimethylmethanamine]
 | 1000 to 2000 | Cc1nc2cc(-c3ccc4c(c3)CN(c3nc([C@@H]5CCCN5C(=O)OCc5ccccc5)nc5c3CC(C)(C)CC5)CCO4)cnc2[nH]1 [Compound 645, phenylmethyl (2S)-2-{6,6-dimethyl-4-[7-(2-methyl-3H-imidazo[4,5-b]pyridin-6-yl)-2,3-dihydro-1,4-benzoxazepin-4(5H)-yl]-5,6,7,8-tetrahydroquinazolin-2-yl}pyrrolidine-1-carboxylate]
50 to 250 |  | CC1(C)CCc2ncnc(N3CCOc4ccc(-c5cnc6c(c5)OCCN6)cc4C3)c2C1 [Compound 569, 7-(3,4-dihydro-2H-pyrido[3,2-b][1,4]oxazin-7-yl)-4-(6,6-dimethyl-5,6,7,8-tetrahydroquinazolin-4-yl)-2,3,4,5-tetrahydro-1,4-benzoxazepine]
 | ≥ 2000 | CCN(CC)c1nc(N2CCOc3ccc(-c4ccc5nc(C)[nH]c5c4)cc3C2)c2ccccc2n1 [Compound 6]
50 to 250 |  | CC(C)(O)CCS(=O)(=O)c1cc(-c2ccc3c(c2)CN(c2ncnc4c2CC(C)(C)CC4)CCO3)cnc1N [Compound 459, 4-({2-amino-5-[4-(6,6-dimethyl-5,6,7,8-tetrahydroquinazolin-4-yl)-2,3,4,5-tetrahydro-1,4-benzoxazepin-7-yl]pyridin-3-yl}sulfonyl)-2-methylbutan-2-ol]
50 to 250 |  | Cc1nc2ccc(-c3ccc4c(c3)CN(c3ncnc5c(Br)cccc35)CCO4)cc2[nH]1 [Compound 25, 4-(8-bromoquinazolin-4-yl)-7-(2-methyl-1H-benzimidazol-6-yl)-2,3,4,5-tetrahydro-1,4-benzoxazepine]
